Results from US12559505B2, “IDH mutant inhibitor and use thereof” (WIGEN BIOMEDICINE TECHNOLOGY (SHANGHAI) CO., LTD., priority 2020, dated 2026).

Target: T1, IDH R132C (Homo sapiens, UniProt O75874, R132C)
T1 construct: expressed in transfected cells; host or cells: U87 cells
Assay: Detection of 2-HG in supernatant of U87-IDH R132C cells
Assay type: cell-based
Settings: 72 h, LC-MS-MS, vs control; for inhibition at 0.001 µM: read-out: Inhibition rate of compounds on 2-HG in the supernatant of U87-IDH R132C cells, 1 nM; for inhibition at 0.01 µM: read-out: Inhibition rate of compounds on 2-HG in the supernatant of U87-IDH R132C cells, 10 nM; for inhibition at 0.1 µM: read-out: Inhibition rate of compounds on 2-HG in the supernatant of U87-IDH R132C cells, 100 nM
Experimental: U87 cells overexpressing the IDH R132C mutation were seeded in a 48-well plate at 50,000 cells/well. After the cells were incubated overnight for adhesion, the supernatant was removed. The cell culture media containing serially diluted compounds were added, and the cells were incubated for 72 h. After 72 h, the cultures were collected and diluted 10-fold with water, and acetonitrile was added to extract the metabolites. The 2-HG content in the cultures was analyzed by LC-MS-MS, and the percentage inhibition of compounds on 2-HG in the supernatant was calculated as compared with the control.

T1 sequence (O75874 whole entry R132C): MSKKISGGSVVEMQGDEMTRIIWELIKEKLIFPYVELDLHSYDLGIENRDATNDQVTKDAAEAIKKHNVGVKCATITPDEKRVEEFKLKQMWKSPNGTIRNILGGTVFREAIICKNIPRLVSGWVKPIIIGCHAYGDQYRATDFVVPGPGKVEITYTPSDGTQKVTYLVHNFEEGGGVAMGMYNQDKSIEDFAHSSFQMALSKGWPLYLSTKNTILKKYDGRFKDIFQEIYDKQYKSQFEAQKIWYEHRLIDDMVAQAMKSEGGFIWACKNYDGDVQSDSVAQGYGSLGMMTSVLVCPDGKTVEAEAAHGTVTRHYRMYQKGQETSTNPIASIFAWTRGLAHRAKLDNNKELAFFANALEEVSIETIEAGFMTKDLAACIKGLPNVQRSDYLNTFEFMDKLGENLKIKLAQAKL

Row | Compound | inhibition at 0.001 µM (1 nM compound) [%] | inhibition at 0.01 µM (10 nM compound) [%] | inhibition at 0.1 µM (100 nM compound) [%] | Inhibition rate of compounds on 2-HG in the supernatant of U87-IDH R132C cells, 1 nM (1 nM compound) | Inhibition rate of compounds on 2-HG in the supernatant of U87-IDH R132C cells, 10 nM (10 nM compound) | Inhibition rate of compounds on 2-HG in the supernatant of U87-IDH R132C cells, 100 nM (100 nM compound)
1 | C=CC(=O)N1CC2(CC([C@H](CC)c3ccc(CNc4ncc5c(n4)N(CC)C(=O)OC5)cc3)C2)C1 [Compound 36-2] | – | – | – | B (B represents an inhibition rate greater than 60% but less than or equal to 90%) | B (B represents an inhibition rate greater than 60% but less than or equal to 90%) | A (A represents an inhibition rate greater than 90%)
2 | C=CC(=O)N1CC2(C1)CN(C(CC)c1ccc([C@H](C)Nc3ncc4c(n3)N(CC)C(=O)OC4)cc1)C2 (stereo partly drawn) [Compound 36] | 60 to 90 | > 90 | > 90 | – | – | –
3 | C=CC(=O)N1CC2(C1)CN(C(CC(C)C)c1ccc([C@H](C)Nc3ncc4c(n3)N(CC)C(=O)OC4)cc1)C2 (stereo partly drawn) [Compound 41] | 30 to 60 | > 90 | > 90 | – | – | –
4 | C=CC(=O)N1CC2(C1)CN(C(CC)c1ccc([C@H](C)Nc3ncc4c(n3)N(C(C)C)C(=O)OC4)cc1)C2 (stereo partly drawn) [Compound 46] | 60 to 90 | > 90 | > 90 | – | – | –
5 | C=CC(=O)N1CC2(C1)CN(C(CC(C)C)c1ccc([C@H](C)Nc3ncc4c(n3)N(C(C)C)C(=O)OC4)cc1)C2 (stereo partly drawn) [Compound 47] | 60 to 90 | > 90 | > 90 | – | – | –
6 | C=CC(=O)N1CC2(C1)CN(C(CC1CC1)c1ccc([C@H](C)Nc3ncc4c(n3)N(CCC)C(=O)OC4)cc1)C2 (stereo partly drawn) [Compound 53] | 30 to 60 | 60 to 90 | > 90 | – | – | –
7 | C=CC(=O)N1CC2(C1)CN(C(CC1CC1)c1ccc([C@H](C)Nc3ncc4c(n3)N(CC(C)C)C(=O)OC4)cc1)C2 (stereo partly drawn) [Compound 54] | 60 to 90 | 60 to 90 | > 90 | – | – | –
8 | C=CC(=O)N1CC2(C1)CN(C(CC(C)(C)C)c1ccc([C@H](C)Nc3ncc4c(n3)N(CC)C(=O)OC4)cc1)C2 (stereo partly drawn) [Compound 59] | 30 to 60 | 60 to 90 | > 90 | – | – | –
9 | C=CC(=O)N1CC2(C1)CN(C(CC1CCC1)c1ccc([C@H](C)Nc3ncc4c(n3)N(CC)C(=O)OC4)cc1)C2 (stereo partly drawn) [Compound 63] | 30 to 60 | > 90 | > 90 | – | – | –
10 | C=CC(=O)N1CC2(C1)CN(C(CC1(C)CC1)c1ccc([C@H](C)Nc3ncc4c(n3)N(CC)C(=O)OC4)cc1)C2 (stereo partly drawn) [Compound 65] | 30 to 60 | > 90 | > 90 | – | – | –
11 | C=CC(=O)N1CC2(C1)CN(C(CC13CC(C1)C3)c1ccc([C@H](C)Nc3ncc4c(n3)N(CC)C(=O)OC4)cc1)C2 (stereo partly drawn) [Compound 66] | 60 to 90 | > 90 | > 90 | – | – | –
12 | C=CC(=O)N1CCN(C(CC2(C)CC2)c2ccc([C@H](C)Nc3ncc4c(n3)N(CC)C(=O)NC4)cc2)CC1 (stereo partly drawn) [Compound 69] | 30 to 60 | > 90 | > 90 | – | – | –
13 | C=CC(=O)N1CC2(C1)CN(C(CC1(C)CC1)c1ccc([C@H](C)Nc3ncc4c(n3)N(CC)C(=O)NC4)cc1)C2 (stereo partly drawn) [Compound 71] | 30 to 60 | > 90 | > 90 | – | – | –
14 | C=CC(=O)N1CC2(C1)CN(C(CC13CC(C1)C3)c1ccc([C@H](C)Nc3ncc4c(n3)N(CC)C(=O)NC4)cc1)C2 (stereo partly drawn) [Compound 72] | 60 to 90 | > 90 | > 90 | – | – | –
15 | C=CC(=O)N1CCN(C(CC)c2ccc([C@H](C)Nc3ncc4c(n3)N(C(C)C)C(=O)NC4)cc2)CC1 (stereo partly drawn) [Compound 80] | 30 to 60 | 60 to 90 | > 90 | – | – | –
16 | C=CC(=O)N1CCN(C(CC(C)C)c2ccc([C@H](C)Nc3ncc4c(n3)N(C(C)C)C(=O)NC4)cc2)CC1 (stereo partly drawn) [Compound 81] | 30 to 60 | 60 to 90 | > 90 | – | – | –
17 | C=CC(=O)N1CCN(C(CC2CC2)c2ccc([C@H](C)Nc3ncc4c(n3)N(CC)C(=O)NC4)cc2)CC1 (stereo partly drawn) [Compound 82] | 30 to 60 | 60 to 90 | > 90 | – | – | –
18 | C=CC(=O)N1CC2(C1)CN(C(CC1CC1)c1ccc([C@H](C)Nc3ncc4cnc(=O)n(C(C)C)c4n3)cc1)C2 (stereo partly drawn) [Compound 86] | 60 to 90 | 60 to 90 | > 90 | – | – | –
19 | C=CC(=O)N1CCN(C(CC2CC2)c2ccc(C3(Nc4ncc5cnc(=O)n(C(C)C)c5n4)CC3)cc2)CC1 (stereo not drawn) [Compound 106] | 30 to 60 | 60 to 90 | > 90 | – | – | –
20 | C=CC(=O)N1CCN(C(CC2CC2)c2ccc(C3(Nc4ncc5cnc(=O)n(CC)c5n4)CC3)cc2)CC1 (stereo not drawn) [Compound 109] | 60 to 90 | 60 to 90 | > 90 | – | – | –
21 | C=CC(=O)N1CCN(C(CC)c2ccc([C@H](C)Nc3ncc4cnc(=O)n(C(C)C)c4n3)cc2)CC1 (stereo partly drawn) [Compound 112] | 60 to 90 | > 90 | > 90 | – | – | –
22 | C=CC(=O)N1CCN(C(CC(C)C)c2ccc([C@H](C)Nc3ncc4cnc(=O)n(C(C)C)c4n3)cc2)CC1 (stereo partly drawn) [Compound 113] | 60 to 90 | > 90 | > 90 | – | – | –

Now from value to molecule, other results behind:

Row | inhibition at 0.001 µM (1 nM compound) [%] | inhibition at 0.01 µM (10 nM compound) [%] | inhibition at 0.1 µM (100 nM compound) [%] | Compound | Inhibition rate of compounds on 2-HG in the supernatant of U87-IDH R132C cells, 1 nM (1 nM compound) | Inhibition rate of compounds on 2-HG in the supernatant of U87-IDH R132C cells, 10 nM (10 nM compound) | Inhibition rate of compounds on 2-HG in the supernatant of U87-IDH R132C cells, 100 nM (100 nM compound)
23 | 60 to 90 | > 90 | > 90 | C=CC(=O)N1CC2(C1)CN([C@@H](CC13CC(C1)C3)c1ccc([C@H](C)Nc3ncc4c(n3)N(CC)C(=O)OC4)cc1)C2 [Compound 66-1] | – | – | –
24 | 30 to 60 | 60 to 90 | > 90 | C=CC(=O)N1CC2(C1)CN([C@H](CC13CC(C1)C3)c1ccc([C@H](C)Nc3ncc4c(n3)N(CC)C(=O)OC4)cc1)C2 [Compound 66-2] | – | – | –
25 | 60 to 90 | > 90 | > 90 | C=CC(=O)N1CCN([C@@H](CC23CC(C2)C3)c2ccc([C@H](C)Nc3ncc4c(n3)N(CC)C(=O)NC4)cc2)CC1 [Compound 70-1] | – | – | –
26 | 60 to 90 | 60 to 90 | > 90 | C=CC(=O)N1CCN([C@H](CC23CC(C2)C3)c2ccc([C@H](C)Nc3ncc4c(n3)N(CC)C(=O)NC4)cc2)CC1 [Compound 70-2] | – | – | –
27 | 60 to 90 | > 90 | > 90 | C=CC(=O)N1CC2(C1)CN([C@@H](CC13CC(C1)C3)c1ccc([C@H](C)Nc3ncc4c(n3)N(CC)C(=O)NC4)cc1)C2 [Compound 72-1] | – | – | –
28 | 30 to 60 | 60 to 90 | > 90 | C=CC(=O)N1CC2(C1)CN([C@H](CC13CC(C1)C3)c1ccc([C@H](C)Nc3ncc4c(n3)N(CC)C(=O)NC4)cc1)C2 [Compound 72-2] | – | – | –
29 | 30 to 60 | 60 to 90 | > 90 | C=CC(=O)N1CCN([C@H](CC2CC2)c2ccc([C@H](C)Nc3ncc4cnc(=O)n(C(C)C)c4n3)cc2)CC1 [Compound 85-2] | – | – | –
30 | 60 to 90 | > 90 | > 90 | C=CC(=O)N1CCN([C@@H](CC2CC2)c2ccc([C@H](C)Nc3ncc4cnc(=O)n(CC)c4n3)cc2)CC1 [Compound 114-1] | – | – | –
